In patent publication US20170205426A1, “RAPID MASS SPECTROMETRY METHODS FOR ANTIMICROBIAL SUSCEPTIBILITY TESTING USING TOP-DOWN MASS SPECTROMETRY” (priority 2016, published 2017):

Tests used:
CTX-M15 = experiment: Bottom-up mass spectrometry sequence coverage of CTX-M15 in K. pneumoniae cultures induced with ertapenem; format: cell-based, Klebsiella pneumoniae; conditions: for CTX-M15 Sequence Coverage: induced with 0.5 mM ertapenem
Procedure: (§1) In some embodiments, a sample of the microbial culture or biological sample is exposed to conditions that induce antimicrobial resistance in the microorganisms prior to testing. In other embodiments, a sample of the microbial culture or biological sample is tested without intentionally inducing antimicrobial resistance in the microorganisms. In certain embodiments, many resistance mechanisms may not have to be induced in order to detect the target proteins of interest. For example, we have observed that the production of PBP2a from MRSA samples varies in its baseline expression without induction. In examining expression of carbapenem-resistant Enterobacteriaceae (CRE)-related resistances, several strains of Klebsiella pneumoniae that contained different combinations of the resistance marker beta-lactamase were tested to determine the effect on detection for induced and non-induced samples. Table 1 lists various resistant and susceptible strains of K. pneumoniae which were tested with 0.5 mM of ertapenem as an inducer. In these experiments, bottom-up mass spectrometry was used to measure sequence coverage of two representative beta-lactamases, KPC-2 and CTX-M15. The percent sequence coverage observed is an approximate measure of the amount of a given protein present in any given extract. The higher the percent sequence coverage observed, the higher the level of that given protein in an extract.

KPC-2 = experiment: Bottom-up mass spectrometry sequence coverage of KPC-2 in K. pneumoniae cultures induced with ertapenem; format: cell-based, Klebsiella pneumoniae; conditions: for KPC-2 Sequence Coverage: induced with 0.5 mM ertapenem
Procedure: as §1

[1] = variety of K. pneumoniae strains, 0.5 mM ertapenem as inducer

For `C[C@@H](O)[C@H]1C(=O)N2C(C(=O)O)=C(S[C@@H]3CN[C@H](C(=O)Nc4cccc(C(=O)O)c4)C3)[C@H](C)[C@H]12` [ertapenem], the “CTX-M15 Sequence Coverage” value (CTX-M15; strain 13883 (Susceptible)) was “not detected”, the “CTX-M15 Sequence Coverage” value (CTX-M15; strain BAA-1903 (Resistant)) was “not detected” and the “CTX-M15 Sequence Coverage” value (CTX-M15; strain BAA-1905 (Resistant)) was “not detected”. The “CTX-M15 Sequence Coverage” value (CTX-M15; strain BAA-2473 (Resistant)) was 70% ± 0%, the “CTX-M15 Sequence Coverage” value (CTX-M15; strain BAA-2578 (Resistant)) was 60% ± 2% and the “percent sequence coverage of CTX-M15, induced versus non-induced” value (CTX-M15; [1]) was “the same regardless of induction”. The “KPC-2 Sequence Coverage” value (KPC-2; strain 13883 (Susceptible)) was “not detected”, the “KPC-2 Sequence Coverage” value (KPC-2; strain BAA-1903 (Resistant)) was 73% ± 0% and the “KPC-2 Sequence Coverage” value (KPC-2; strain BAA-1905 (Resistant)) was 85% ± 5%. For the same compound, the “KPC-2 Sequence Coverage” value (KPC-2; strain BAA-2473 (Resistant)) was “not detected”, the “KPC-2 Sequence Coverage” value (KPC-2; strain BAA-2578 (Resistant)) was “not detected” and the “percent sequence coverage of KPC-2, induced versus non-induced” value (KPC-2; [1]) was “the same regardless of induction”.
